Assay results: article PMC6099102, “Effect of the Nature of Donor Atoms on the Thermodynamic, Kinetic and Relaxation Properties of Mn(II) Complexes Formed With Some Trisubstituted 12-Membered Macrocyclic Ligands” (Frontiers in Chemistry, 2018)
Where two headings read alike, the source gives them in different places. Marks after values point to notes of the source that are not given here.

Experiments:
[1] = cited from earlier work; for Σ log K2H: log K1H + log K2H
[2] = cited from earlier work; for log KML / log KMLH: Mn(II) complex; for pMn: pH = 7.4, cM = cL = 10^−5 M
[3] = Protonation constants of the ligands by pH-potentiometric titration; format: physicochemical; conditions: for Σ log K2H: log K1H + log K2H
Method: (§1) The concentration of the ligand solutions was determined by pH-potentiometric titration in the presence and absence of an excess (5–10 fold) of MnCl2. For determining the protonation constants of the investigated ligands, pH-potentiometric titrations were made by means of 0.2 M standardized NaOH in 2 and 3 mM ligand solutions in the pH-range of 1.75–11.85. All equilibrium measurements were performed at a constant 0.15 M NaCl ionic strength at 25 °C. The protonation and the stability constants of the Mn(II) complexes were determined by pH-potentiometric titrations (DOTP, DO3A, PCTA, ODO3A, DO3P) while owing to the slow formation rates of Mn(II) complexes formed with amide type ligands, the stability constants of DOTAM, DOTMA, DO3AM^H, PC3AM^H, PC3AM^Gly, PC3AM^Pip complexes were determined by out-of-cell pH-potentiomertry in combination with ^1H relaxometry. The metal-to-ligand concentration ratio in the solutions was 1:1. For the calculation of protonation constants of the ligands and the log KMnL and log KMnLHi values of the complexes, mL–pH data pairs (50–180), obtained in the pH range of 1.75–11.85 or r1obs-pH data pairs (10–15 batch samples) obtained in the pH range of 2–4.5 were used (the samples were equilibrated for 4–7 days). The equilibrium constants characterizing the deprotonation that occurs at basic pH were determined from the data obtained via direct pH-potentiometric titrations performed on the pre-formed complexes.
(§2) The pH-potentiometric titrations were carried out with a Methrohm 888 Titrando titration workstation using a Metrohm-6.0233.100 combined electrode. The samples (6.00 mL) were thermostated at 25 °C. The samples were stirred and kept under inert gas (N2) to avoid the effect of CO2. KH-phthalate (pH = 4.005) and borax (pH = 9.177) buffers were used for the pH-calibration. The method proposed by Irving et al. was used for the calculation of H^+ concentrations from the measured pH values (Irving et al., [1967]). A 0.01 M HCl (I = 0.15 M set with NaCl) solution was titrated with standardized NaOH solution of known concentration (approx. 0.2 M). The correction factor obtained as difference of calculated pH and measured pH values was used to calculate the [H^+] in the samples. The ionic product of water was determined from the same titrations (HCl/NaOH) from the data collected in the pH range of 11.20–11.85.
The protonation and complexation equilibria of the macrocyclic ligands and their Mn(II) complexes have been studied by pH-potentiometric and relaxometric methods in the presence of 0.15 M NaCl whose ionic strength mimics the physiological conditions. The protonation constants of the ligands were evaluated by fitting the pH-V(mL) base data pairs collected in the pH-potentiometric titrations. The protonation equilibria of the ligands can be described by Equation (2). (a comparison of previously published log K^H data available in the Supplementary Material) together with the constants of H4DOTA, cis- and trans-H2DO2A derivatives given for comparison. (2) KiH=[HiL]/[Hi-1L][H^+],i=1,2,…

[4] = Stability and protonation constants and pMn of the Mn(II) complexes (pH-potentiometry and/or 1H relaxometry); format: physicochemical; conditions: I = 0.15 M NaCl, 25 °C; for pMn: calculated at pH = 7.4, cM = cL = 10^−5 M; for log KML: stability constant of the Mn(II) complex; for log KMLOH: ternary hydroxido complex of Mn(II); for log KMLH: protonation constant of the Mn(II) complex; for log KMHLH: second protonation constant of the Mn(II) complex; for log KMH2LH: third protonation constant of the Mn(II) complex
Method: as §1, §2
The relaxometric data were collected using a Bruker Minispec MQ20 NMR relaxometer. […] A datapoint plotted on figures represents an average of 5–6 T1 measurements (Figures S3–S9 in Supplementary Material). The data were fitted by using the molar r1p relaxivity value of the MnCl2 ([…] at 0.49 T and 25 °C). The equilibrium constants were calculated using the PSEQUAD program (Zékány and Nagypál, [1985]).
In order to gain information on the thermodynamic stability of the Mn(II) complexes, samples containing the metal and ligand in 1 to 1 molar ratio were studied by pH potentiometry or ^1H-relaxometry and in some cases by a combination of the two methods. The titration data were fitted by assuming the existence of [M(L)] and some protonated species ([M(HiL)]) at lower pH values. In some cases to fit the data obtained at higher pH, the formation of ternary hydroxido complexes ([M(L)(OH)]) were also included in the equilibrium model. The stability constants (KML) and the various protonation forms (KMHiL) of ML metal chelates are defined by Equations (3)–(5). However, a comparison of the stabilities of different complexes solely on the basic of their stability constants might be misleading because of the differences in ligand basicities. […] The pMn value accounts for the effect of proton competition (ligand basicity and complex protonation) on the stability constant essentially offering the same information as the conditional stability constant. Higher pMn values indicate a higher chelate stability at specified conditions. […]

[5] = Dissociation kinetics of the Mn(II) complexes (acid catalyzed dissociation, metal or ligand exchange reactions); format: physicochemical; conditions: replacement of >NH in DO3A by etheric oxygen
Method: The dissociation reactions were followed by UV-vis spectrophotometry at 269 nm for the pyclen derivatives or at 300 nm for other complexes in the pH range of 3.6–5.0 for the exchange reactions with Cu(II) and up to pH = 6.0 when Zn(II) was used as a ligand scavenger. The acid catalyzed dissociation reactions were performed in the HCl concentration range of 0.05–1.0 M. The concentration of the complexes in the samples was 0.25 mM, while the concentration of the exchanging metal ion in the metal initiated transchelation reactions was 10–40 times higher to ensure pseudo-first-order conditions. Relaxometry was used to follow the transchelation reactions of [Mn(DOTAM)]^2+, [Mn(DO3AM^H)]^2+, [Mn(DO3A)]^−, [Mn(PCTA)]^− and [Mn(ODO3A)]^− with Cu(II)/Zn(II) ions in the pH range of 3.6–5.5 (Figures S17–S19 in Supplementary Material). The concentration of the complexes in these samples was set to 1.0–2.0 mM to achieve relatively large change during the dissociation reaction. […] The temperature was maintained at 25 °C and the ionic strength of the solutions was kept constant at 0.15 M with NaCl. N,N′-dimethyl- (DMP) and N-methyl-piperazine (NMP) buffers (log K2H = 4.18 and 4.90 at 25 °C and I = 0.15 M NaCl, respectively) were used at 0.05 M concentration to keep the pH constant. The pseudo-first-order rate constants (kobs) were calculated by fitting the absorbance or relaxivity-time data pairs to Equation (1) (1) Xt=(X0-Xe)e^-kobst+Xe where Xt, X0, and Xe are the absorbance or relaxivity at time t, at the start and at equilibrium, respectively. The calculations were performed with the computer program Micromath Scientist, version 2.0 (Salt Lake City, UT, USA) using a standard least-squares procedure.
The kinetic inertness of the Mn(II) complexes is the other important parameter for the complexes considered for use in vivo. The inertness of Mn(II) complexes formed with trisubstituted 12-memberd macrocyclic ligands were characterized either by studying the rates of acid catalyzed dissociation or by studying transmetallation reactions occurring between the complexes and a suitable exchanging metal ion such as Zn(II) or Cu(II). The demetallation reactions of labile complexes were performed at high pH by following the ligand exchange reactions with trans-CDTA and DTPA ligands. The demetallation reactions were studied in the presence of a large Cu(II)/Zn(II)/trans-CDTA/DTPA excess or by using high acid concentration in order to ensure pseudo-first-order conditions (Equation 6). Scheme 1 outlines all the possible dissociation pathways for the Mn(II) complexes. […] The reactions of the released Mn(II) and L ligand with the exchanging L' and M' reactants are assumed to be very rapid.
The rate of dissociation can be expressed by the Equation (6), where kobs is the pseudo-first-order rate constant and [Mn(L)]t is the total concentration of the species containing [Mn(L)] complex. The [Mn(L)]t will differ slightly depending on the experimental conditions (in the presence of a large metal or ligand excess). As [Mn(L)]t = [Mn(L)] + [Mn(HL)] + [Mn(H2L)] + [Mn(L)M] + [Mn(L)(L')] + [Mn(HL)(L')] for reactions performed at high pH (in the pH range of 3.0–5.0 often applied in Cu(II) exchange reactions) will involve fewer protonated species while the acid catalyzed dissociation reactions run in the strongly acidic media (0.1–1.0 M acid concentration range) predominantly contain protonated species ([Mn(L)]t = [Mn(L)]+[Mn(HL)]+[Mn(H2L)]). (6) -d[MnL]t/dt=kobs[MnL]t
By taking into account the various complex species and the possible reaction pathways as well as the protonation and stability constants of the reactive intermediates, the following equation (Equation 7) can be derived to describe the rates of dissociation. […]

[6] = ligand protonation constant, I = 0.15 M NaCl, 25 °C
[7] = I = 0.1 M KCl, ref Aime et al., [2011]
[8] = 1H-relaxometry, ref Tircsó and Woods (in preparation)
[9] = buffer, 25 °C and I = 0.15 M NaCl

O=C(O)CN1CCNCCN(CC(=O)O)CCNCC1 [trans-DO2A]
Σ log K2H ([1]; ref Garda et al. ([2016])): 21.44
log K1H ([1]; ref Garda et al. ([2016])): 11.69
log K2H ([1]; ref Garda et al. ([2016])): 9.75
log K3H ([1]; ref Garda et al. ([2016])): 3.97
log K4H ([1]; ref Garda et al. ([2016])): 2.68
log KML ([2]; ref Garda et al. ([2016])): 14.64
log KMLH ([2]; ref Garda et al. ([2016])): 4.40
pMn ([2]; ref Garda et al. ([2016])): 6.52

O=C(O)CN1CCNCCNCCN(CC(=O)O)CC1 [cis-DO2A]
Σ log K2H ([1]; ref Garda et al. ([2016])): 20.95
log K1H ([1]; ref Garda et al. ([2016])): 11.44
log K2H ([1]; ref Garda et al. ([2016])): 9.51
log K3H ([1]; ref Garda et al. ([2016])): 4.14
log K4H ([1]; ref Garda et al. ([2016])): 1.55
log KML ([2]; ref Garda et al. ([2016])): 15.68
log KMLH ([2]; ref Garda et al. ([2016])): 4.15
pMn ([2]; ref Garda et al. ([2016])): 7.27

NC(=O)CN1CCNCCN(CC(N)=O)CCN(CC(N)=O)CC1 [DO3AM^H]
log K1H [3, 6]: 9.40 (5)
log K2H [3, 6]: 6.28 (8)
Σ log K2H ([3]; I = 0.15 M NaCl, 25 °C): 15.68
pMn [4]: 7.32
log KML [4]: 11.69 (2)

NC(=O)CN1CCN(CC(N)=O)CCN(CC(N)=O)CCN(CC(N)=O)CC1 [DOTAM]
log K1H [3, 6]: 7.31 (1)
log K2H [3, 6]: 6.07 (1)
Σ log K2H ([3]; I = 0.15 M NaCl, 25 °C): 13.38
pMn [4]: 8.60
log KML [4]: 11.96 (1)

O=C(CN1CCN(CC(=O)N2CCCCC2)Cc2cccc(n2)CN(CC(=O)N2CCCCC2)CC1)N1CCCCC1 [PC3AM^Pip]
log K1H [3, 6]: 8.74 (1)
log K2H [3, 6]: 5.77 (2)
log K3H [3, 6]: 1.42 (9)
Σ log K2H ([3]; I = 0.15 M NaCl, 25 °C): 14.51
pMn [4]: 8.86
log KML [4]: 14.05 (2)
log KMLOH [4]: 11.63 (2)

O=C(O)CN1CCOCCN(CC(=O)O)CCN(CC(=O)O)CC1 [ODO3A]
log K1H [3, 6]: 8.74 (2)
log K2H [3, 6]: 7.58 (2)
log K3H [3, 6]: 3.99 (3)
log K4H [3, 6]: 2.39(3)
Σ log K2H ([3]; I = 0.15 M NaCl, 25 °C): 16.32
pMn [4]: 8.57
log KMLH [4]: 2.77 (5)
log KML [4]: 13.88 (1)
increase in the k1 value of the Mn(II) complex relative to DO3A [5]: 50 fold

O=C(O)CNC(=O)CN1CCN(CC(=O)NCC(=O)O)Cc2cccc(n2)CN(CC(=O)NCC(=O)O)CC1 [PC3AM^Gly]
log K1H [3, 6]: 8.85 (1)
log K2H [3, 6]: 4.55 (1)
log K3H [3, 6]: 3.81 (1)
log K4H [3, 6]: 3.21 (1)
log K5H [3, 6]: 2.80 (1)
log K6H [3, 6]: 1.38 (1)
Σ log K2H ([3]; I = 0.15 M NaCl, 25 °C): 13.40
pMn [4]: 8.37
log KMLH [4]: 3.98 (1)
log KMHLH [4]: 3.14 (1)
log KML [4]: 13.20 (1)
log KMLOH [4]: 10.67 (2)
log KMH2LH [4]: 2.87 (1)

CC(C(=O)O)N1CCN(C(C)C(=O)O)CCN(C(C)C(=O)O)CCN(C(C)C(=O)O)CC1 (stereo not drawn) [DOTMA]
log K1H [1, 7]: 11.72
log K2H [1, 7]: 9.06
log K3H [1, 7]: 4.74
log K4H [1, 7]: 5.59
log K5H [1, 7]: 1.92
Σ log K2H [1, 7]: 20.78
log KML [2, 8]: 18.37^[a]
log KMLH [2, 8]: 4.56^[a]
pMn ([2]; ref Tircsó and Woods (in preparation)): 8.69

CN1CCN(C)CC1 [DMP, reference compound]
log K2H [3, 9]: 4.18

O=P(O)(O)CN1CCN(CP(=O)(O)O)CCN(CP(=O)(O)O)CCN(CP(=O)(O)O)CC1 [DOTP]
log K1H ([3]; ligand protonation constant by 1H- and 31P-NMR, I = 0.15 M NaCl, 25 °C): 13.6 (2)^[a]
log K2H [3, 6]: 12.23 (3)
log K3H [3, 6]: 8.63 (5)
log K4H [3, 6]: 7.45 (4)
log K5H [3, 6]: 5.84 (5)
log K6H [3, 6]: 5.02 (5)
Σ log K2H ([3]; I = 0.15 M NaCl, 25 °C): 25.83
pMn [4]: 6.43
log KMLH [4]: 8.09 (1)
log KMHLH [4]: 7.79 (1)
log KML [4]: 18.98 (1)
log KMH2LH [4]: 6.74 (1)

CN1CCNCC1 [NMP, N-methyl-piperazine, reference compound]
log K2H [3, 9]: 4.90
